Laboratory results reported in ChEMBL document CHEMBL1201862, “PubChem BioAssay data set” (2004).
Calls of active or inactive are those of the source. For most assays here, no stated cut-off is given here; in the data, actives have a measured IC50 and inactives only a lower limit.

What was measured:
[1] = molecular target: T1, Sentrin-specific protease 6 (Homo sapiens, UniProt Q9GZR1); type: functional;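 further: Luminescence-based dose-response confirmatory assay of SENP6 inhibition, following up an ultra-high-throughput screen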
T1 sequence (Q9GZR1 whole entry): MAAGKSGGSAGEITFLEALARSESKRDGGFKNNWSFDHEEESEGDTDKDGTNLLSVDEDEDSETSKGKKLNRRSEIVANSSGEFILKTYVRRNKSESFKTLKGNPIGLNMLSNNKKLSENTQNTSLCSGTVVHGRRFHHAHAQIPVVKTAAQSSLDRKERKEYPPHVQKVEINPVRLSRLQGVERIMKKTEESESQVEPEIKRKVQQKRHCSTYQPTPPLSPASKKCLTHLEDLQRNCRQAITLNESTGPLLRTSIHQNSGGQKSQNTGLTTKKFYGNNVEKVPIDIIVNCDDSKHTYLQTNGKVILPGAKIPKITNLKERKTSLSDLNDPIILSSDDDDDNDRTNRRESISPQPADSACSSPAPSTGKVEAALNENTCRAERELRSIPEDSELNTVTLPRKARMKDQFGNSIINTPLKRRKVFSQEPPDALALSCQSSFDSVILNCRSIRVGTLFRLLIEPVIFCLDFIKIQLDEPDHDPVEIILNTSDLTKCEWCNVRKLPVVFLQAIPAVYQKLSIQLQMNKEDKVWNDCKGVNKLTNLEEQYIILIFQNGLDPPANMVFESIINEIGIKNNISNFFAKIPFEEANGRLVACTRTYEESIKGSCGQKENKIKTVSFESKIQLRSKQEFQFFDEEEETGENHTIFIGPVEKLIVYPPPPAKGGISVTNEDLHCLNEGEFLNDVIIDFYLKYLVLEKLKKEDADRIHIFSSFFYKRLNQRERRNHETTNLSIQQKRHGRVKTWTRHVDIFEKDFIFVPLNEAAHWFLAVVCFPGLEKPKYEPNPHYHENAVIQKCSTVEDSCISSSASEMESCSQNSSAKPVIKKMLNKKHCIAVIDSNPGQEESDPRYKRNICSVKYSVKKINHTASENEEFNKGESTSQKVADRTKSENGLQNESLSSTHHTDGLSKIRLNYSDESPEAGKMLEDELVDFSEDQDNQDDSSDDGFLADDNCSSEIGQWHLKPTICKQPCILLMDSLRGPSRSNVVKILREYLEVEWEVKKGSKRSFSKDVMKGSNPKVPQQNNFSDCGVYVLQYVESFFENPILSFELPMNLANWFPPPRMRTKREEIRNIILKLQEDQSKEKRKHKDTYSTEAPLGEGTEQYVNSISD

[2] = molecular target: T2, Sentrin-specific protease 8 (Homo sapiens, UniProt Q96LD8); type: functional;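 further: luminescence read-out of SENP8 inhibition, dose-response confirmation following an ultra-high-throughput screen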
T2 sequence (Q96LD8 whole entry): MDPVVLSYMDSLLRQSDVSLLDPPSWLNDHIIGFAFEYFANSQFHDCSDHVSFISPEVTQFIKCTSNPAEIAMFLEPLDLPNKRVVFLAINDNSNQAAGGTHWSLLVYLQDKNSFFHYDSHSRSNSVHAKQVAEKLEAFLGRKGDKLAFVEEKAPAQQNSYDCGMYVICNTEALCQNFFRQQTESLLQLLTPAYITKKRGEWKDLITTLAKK

[3] = molecular target: T3, Sentrin-specific protease 7 (Homo sapiens, UniProt Q9BQF6); type: functional;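 further: Luminescence-based dose-response confirmation of ultra-high-throughput screening hits, measuring inhibition of SENP7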
T3 sequence (Q9BQF6 whole entry): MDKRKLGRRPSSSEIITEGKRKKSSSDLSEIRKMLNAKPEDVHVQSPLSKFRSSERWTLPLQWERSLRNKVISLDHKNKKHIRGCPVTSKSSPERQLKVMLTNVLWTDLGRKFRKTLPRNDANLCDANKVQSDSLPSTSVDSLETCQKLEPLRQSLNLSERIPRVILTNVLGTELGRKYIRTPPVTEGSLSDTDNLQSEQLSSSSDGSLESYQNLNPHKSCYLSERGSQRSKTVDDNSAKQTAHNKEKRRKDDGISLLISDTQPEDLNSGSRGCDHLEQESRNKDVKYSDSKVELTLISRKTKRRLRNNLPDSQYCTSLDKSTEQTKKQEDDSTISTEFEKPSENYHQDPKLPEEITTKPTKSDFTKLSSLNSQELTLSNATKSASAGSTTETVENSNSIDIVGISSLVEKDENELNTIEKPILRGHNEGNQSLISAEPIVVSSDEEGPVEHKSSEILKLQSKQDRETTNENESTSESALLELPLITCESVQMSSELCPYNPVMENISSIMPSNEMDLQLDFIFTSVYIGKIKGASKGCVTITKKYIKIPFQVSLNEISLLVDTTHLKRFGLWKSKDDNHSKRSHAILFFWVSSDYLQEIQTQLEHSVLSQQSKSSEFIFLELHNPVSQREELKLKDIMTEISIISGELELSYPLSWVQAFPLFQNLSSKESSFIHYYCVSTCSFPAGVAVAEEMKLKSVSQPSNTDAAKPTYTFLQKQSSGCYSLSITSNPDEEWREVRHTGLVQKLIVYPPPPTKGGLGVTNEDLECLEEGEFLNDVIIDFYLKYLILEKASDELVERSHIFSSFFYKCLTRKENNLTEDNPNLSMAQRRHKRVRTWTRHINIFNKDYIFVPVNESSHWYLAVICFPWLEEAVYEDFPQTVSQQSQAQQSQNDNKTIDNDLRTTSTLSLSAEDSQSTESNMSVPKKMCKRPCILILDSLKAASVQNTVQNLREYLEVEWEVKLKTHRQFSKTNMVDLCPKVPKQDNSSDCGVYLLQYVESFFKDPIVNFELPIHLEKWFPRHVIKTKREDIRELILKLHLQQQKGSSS

[4] = molecular target: 1-phosphatidylinositol 4,5-bisphosphate phosphodiesterase beta-3 (Homo sapiens, UniProt Q01970); test: Fluorescence-based biochemical high throughput dose response assay to identify inhibitors of phospholipase C isozymes (PLC-B3).
Cysteine protease ATG4B = molecular target: T4, Cysteine protease ATG4B (Homo sapiens, UniProt Q9Y4P1); type: functional;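 further: Fluorescence-based dose-response confirmation assay measuring inhibition of ATG4B activity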
T4 sequence (Q9Y4P1 whole entry): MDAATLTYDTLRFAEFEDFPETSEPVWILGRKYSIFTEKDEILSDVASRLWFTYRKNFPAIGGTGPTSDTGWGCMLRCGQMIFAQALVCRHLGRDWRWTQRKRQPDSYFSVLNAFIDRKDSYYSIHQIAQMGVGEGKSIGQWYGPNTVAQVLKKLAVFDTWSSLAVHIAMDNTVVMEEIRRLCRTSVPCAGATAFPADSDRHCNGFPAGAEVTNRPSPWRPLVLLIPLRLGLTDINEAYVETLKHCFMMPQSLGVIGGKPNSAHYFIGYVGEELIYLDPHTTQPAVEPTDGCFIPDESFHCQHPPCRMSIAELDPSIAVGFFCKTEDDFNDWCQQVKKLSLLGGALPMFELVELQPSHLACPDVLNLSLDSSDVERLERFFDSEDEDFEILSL

1-phosphatidylinositol 4,5-bisphosphate phosphodiesterase beta-3, sequence (Q01970 whole entry): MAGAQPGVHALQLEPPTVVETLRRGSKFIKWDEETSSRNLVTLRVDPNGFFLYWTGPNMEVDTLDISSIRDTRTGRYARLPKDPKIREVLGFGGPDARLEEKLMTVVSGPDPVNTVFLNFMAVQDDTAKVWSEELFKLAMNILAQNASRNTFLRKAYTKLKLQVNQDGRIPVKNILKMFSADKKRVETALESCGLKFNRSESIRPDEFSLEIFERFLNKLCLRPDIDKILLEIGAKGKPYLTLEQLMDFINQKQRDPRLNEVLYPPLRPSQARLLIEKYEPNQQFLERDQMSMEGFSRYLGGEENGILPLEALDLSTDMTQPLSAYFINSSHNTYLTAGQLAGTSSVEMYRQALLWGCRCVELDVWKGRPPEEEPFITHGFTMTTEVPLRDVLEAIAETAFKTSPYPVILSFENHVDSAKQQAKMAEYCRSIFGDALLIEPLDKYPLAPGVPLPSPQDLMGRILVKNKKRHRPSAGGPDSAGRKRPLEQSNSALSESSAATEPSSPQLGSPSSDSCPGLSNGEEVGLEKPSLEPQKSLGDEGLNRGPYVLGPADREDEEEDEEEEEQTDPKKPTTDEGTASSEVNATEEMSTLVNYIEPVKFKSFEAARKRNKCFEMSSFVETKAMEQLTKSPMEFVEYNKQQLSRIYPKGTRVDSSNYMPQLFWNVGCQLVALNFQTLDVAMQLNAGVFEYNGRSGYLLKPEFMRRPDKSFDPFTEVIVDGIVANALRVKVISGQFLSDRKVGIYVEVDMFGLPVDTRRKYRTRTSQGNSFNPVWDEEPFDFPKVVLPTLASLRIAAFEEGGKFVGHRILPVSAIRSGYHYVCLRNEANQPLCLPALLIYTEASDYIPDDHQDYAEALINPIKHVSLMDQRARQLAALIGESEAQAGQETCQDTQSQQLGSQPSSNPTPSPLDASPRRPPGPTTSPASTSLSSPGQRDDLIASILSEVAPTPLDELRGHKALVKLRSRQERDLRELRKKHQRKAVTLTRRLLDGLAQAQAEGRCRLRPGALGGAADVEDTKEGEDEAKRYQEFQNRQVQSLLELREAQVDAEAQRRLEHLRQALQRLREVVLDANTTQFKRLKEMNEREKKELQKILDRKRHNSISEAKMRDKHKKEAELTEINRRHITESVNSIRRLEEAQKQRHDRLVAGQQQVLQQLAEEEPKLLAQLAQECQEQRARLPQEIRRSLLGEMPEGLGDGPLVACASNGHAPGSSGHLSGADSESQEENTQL

Compound	IC50 [1]	IC50 [2]	IC50 [3]	IC50 [4]	IC50 (Cysteine protease ATG4B)
COc1ccc(OC)c(Nc2cc3ccccc3c(O)n2)c1	< 1550 nM (active)	2450 nM (active)	2190 nM (active)	–	–
O=C(O)c1ccc(NC2=C/C(=N/S(=O)(=O)c3ccccc3)c3ccccc3C2=O)cc1	743 nM (active)	1380 nM (active)	2060 nM (active)	> 122000 nM (inactive)	10100 nM (active)
Nc1ccc2c(c1)C(=O)C(=O)c1ccccc1-2	–	–	–	> 122000 nM (inactive)	1560 nM (active)
